According to patent publication EP1506969B1, “Compounds with growth hormone releasing properties” (Helsinn Therapeutics (U.S.), Inc., priority 1998, dated 2010):
Square brackets hold non-standard residues; d marks the D form. Peptide text beside a SMILES is read from it. d2Nal = N[C@H](Cc1ccc2ccccc2c1)C(=O)O

Legend:
[1] = test system: carboxypeptidase Y and B; assay: Metabolic stability in carboxypeptidase mix (ESMS, selected ion monitoring); conditions: stability: decrease in SIM signal after 24 h in degradation solution; carboxypeptidase Y and B in 50 mM ammoniumacetate pH 4.5, 37°C
Description: Compounds of formula I may be evaluated for their metabolic stability using the procedure described below:
(§1) Compounds is dissolved at a concentration of 1 mg/ml in water. 25 ml of this solution is added to 175 ml of the respective enzyme-solution (resulting in an enzyme:substrate ratio (w/w) of approximately 1:5). The solution is left at 37°C overnight. 10 ml of the various degradation solutions is analyzed against a corresponding zero-sample using flow injection electrospray mass spectrometry (ESMS) with selected ion monitoring of the molecular ion. If the signal has decreased more than 20% compared to the zero-sample, the remainder of the solution is analyzed by HPLC and mass spectrometry in order to identify the extent and site(s) of degradation precisely.
(§2) Enzymes (trypsin, chymotrypsin, elastase aminopeptidase M and carboxypeptidase Y and B) were all purchased from Boehringer Mannheim GmbH (Mannheim, Germany)
Carboxypeptidase mix: carboxypeptidase Y and B in 50 mM ammoniumacetate pH 4.5 (all concentrations 0.025 mg/ml).
(§3) Mass spectrometric analysis was performed using two different mass spectrometers. […]
(§4) Quantification of the compounds (before and after degradation) was done on the API III instrument using single ion monitoring of the molecular ion in question with flow injection of the analyte. […]

[2] = test system: trypsin, chymotrypsin and elastase; assay: Metabolic stability in pancreatic enzyme mix (ESMS, selected ion monitoring); conditions: stability: decrease in SIM signal after 24 h in degradation solution, chymotrypsin and elastase in 100 mM ammoniumbicarbonate pH 8.0, 37°C
Description: as §1, §2
Pancreatic enzyme mix: trypsin, chymotrypsin and elastase in 100 mM ammoniumbicarbonate pH 8.0 (all concentrations 0.025 mg/ml).
as §3, §4

Q: `C[C@H](NC(=O)[C@@H](Cc1ccc2ccccc2c1)NC(=O)[C@@H](C)N)C(=O)N[C@@H](Cc1c[nH]c2ccccc12)C(=O)N[C@H](Cc1ccccc1)C(=O)N[C@@H](CCCCN)C(N)=O` [GHRP-2] (H-[dA][d2Nal]AW[dF]K-NH2) was tested. Which Carboxy-peptidase mix [1] did it give?
A: - (Unstable (more than 20% decrease in SIM signal after 24 h in degradation solution))

Q: And the Pan. enzyme mix [2]?
A: - (Unstable (more than 20% decrease in SIM signal after 24 h in degradation solution))

Q: For `C[C@H](NC(=O)[C@@H](Cc1c[nH]c2ccccc12)NC(=O)[C@@H](N)Cc1c[nH]cn1)C(=O)N[C@@H](Cc1c[nH]c2ccccc12)C(=O)N[C@H](Cc1ccccc1)C(=O)N[C@@H](CCCCN)C(N)=O` [GHRP-6] (H-H[dW]AW[dF]K-NH2), which Carboxy-peptidase mix [1] is on record?
A: - (Unstable (more than 20% decrease in SIM signal after 24 h in degradation solution))

Q: And the Pan. enzyme mix [2]?
A: - (Unstable (more than 20% decrease in SIM signal after 24 h in degradation solution))
